Target: T1, rat NaPi-2b (Rattus norvegicus, UniProt Q9JJ09)
T1 construct: expressed in transfected cells; host or cells: Xenopus oocytes injected with cRNA
T1 sequence (Q9JJ09 1-695): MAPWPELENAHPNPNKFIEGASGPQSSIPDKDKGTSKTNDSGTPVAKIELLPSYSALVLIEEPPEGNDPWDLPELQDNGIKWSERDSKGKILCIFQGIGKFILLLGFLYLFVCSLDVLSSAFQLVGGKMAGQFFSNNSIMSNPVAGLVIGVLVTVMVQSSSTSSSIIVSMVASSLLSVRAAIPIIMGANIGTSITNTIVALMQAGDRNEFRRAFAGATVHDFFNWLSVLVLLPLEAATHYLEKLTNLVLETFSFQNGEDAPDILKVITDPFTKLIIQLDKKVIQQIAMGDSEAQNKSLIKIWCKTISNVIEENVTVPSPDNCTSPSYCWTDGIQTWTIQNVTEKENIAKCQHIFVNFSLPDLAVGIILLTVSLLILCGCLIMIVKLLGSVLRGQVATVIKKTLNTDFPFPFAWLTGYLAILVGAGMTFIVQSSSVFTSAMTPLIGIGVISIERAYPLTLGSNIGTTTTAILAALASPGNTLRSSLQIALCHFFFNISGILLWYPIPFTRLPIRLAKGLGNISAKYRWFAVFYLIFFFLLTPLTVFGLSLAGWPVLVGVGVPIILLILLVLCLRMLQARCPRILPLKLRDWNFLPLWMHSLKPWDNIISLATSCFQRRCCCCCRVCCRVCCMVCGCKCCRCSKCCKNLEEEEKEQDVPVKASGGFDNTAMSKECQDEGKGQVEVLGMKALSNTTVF
Test: Sodium-dependent phosphate uptake of Xenopus oocytes which expressed NaPi-2b (32P)
Format: cell-based
Details: for IC50: Xenopus oocytes expressing rat NaPi-2b, 32P radioactive phosphorus, read-out: IC50 (phosphate uptake inhibitory activity); for inhibition at 300 µM: phosphate uptake, oocytes expressing rat NaPi-2b, determined from inhibition curve
Summary of the method: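 Read-out is 32P phosphate uptake into Xenopus oocytes expressing rat intestinal NaPi-2b (cRNA injection, 2-day culture). Inhibition at 300 μM and 100 μM was derived from a single inhibition curve and given as percent.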

SMILES | IC50 [µM] | inhibition at 300 µM [%]
Cc1csc(NC(=O)c2cccc(CN3CCC(N4CCCCC4)CC3)c2)c1C(=O)N/N=C/c1ccc(F)cc1 [Compound 571, 3-[1,4′]Bipiperidinyl-1′-ylmethyl-N-[3-(4-fluoro-benzylidene-hydrazinocarbonyl)-4-methyl-thiophen-2-yl]-benzamide] | 5.27 | –
COc1ccc(/C=N/NC(=O)c2cc(OCCCN3CCCCC3)ccc2NC(=O)c2cccc(CSCCO)c2)cc1 [Compound 1040, 3-(2-Hydroxy-ethylsulfanylmethyl)-N-[2-(4-methoxy-benzylidene-hydrazinocarbonyl)-4-(3-piperidin-1-yl-propoxy)-phenyl]-benzamide] | 52.2 | –
CCN(CC)CCN(C)Cc1cccc(C(=O)Nc2sccc2C(=O)N/N=C/c2ccc(Cl)c(C(F)(F)F)c2)c1 [Compound 668, N-[3-(4-Chloro-3-trifluoromethyl-benzylidene-hydrazinocarbonyl)-thiophen-2-yl]-3-{[(2-diethylamino-ethyl)-methyl-amino]-methyl}-benzamide] | 9.13 | –
CCN(CC)CCN(C)Cc1cccc(C(=O)Nc2c(C)csc2C(=O)N/N=C/c2ccc(F)cc2)c1 [Compound 528, 3-{[(2-Diethylamino-ethyl)-methyl-amino]-methyl}-N-[2-(4-fluoro-benzylidene-hydrazinocarbonyl)-4-methyl-thiophen-3-yl]-benzamide] | – | 58.4
O=C(Nc1ccc(Cl)cc1C(=O)N/N=C/c1ccc(Cl)c(C(F)(F)F)c1)c1cccc(CN2CCC(N3CCCCC3)CC2)c1 [Compound 373, 3-[1,4′]Bipiperidinyl-1′-ylmethyl-N-[4-chloro-2-(4-chloro-3-trifluoromethyl-benzylidene-hydrazinocarbonyl)-phenyl]-benzamide] | 1.68 | –
COc1ccc(/C=N/NC(=O)c2cc(N3CCCCC3)ccc2NC(=O)c2cccc(CN3CCC(O)CC3)c2)cc1 [Compound 875, 3-(4-Hydroxy-piperidin-1-ylmethyl)-N-[2-(4-methoxy-benzylidene-hydrazinocarbonyl)-4-piperidin-1-yl-phenyl]-benzamide] | 5.2 | –
COc1ccc(NC(=O)c2cccc(CSCC(O)CO)c2)c(C(=O)N/N=C/c2ccc(C)c(C)c2)c1 (centres unmarked) [Compound 1019, 3-(2,3-Dihydroxy-propylsulfanylmethyl)-N-[2-(3,4-dimethyl-benzylidene-hydrazinocarbonyl)-4-methoxy-phenyl]-benzamide] | 0.41 | –
COc1ccc(/C=N/NC(=O)c2cc(N3CCCCC3)ccc2NC(=O)c2cccc(CN(CC(C)O)CC(C)O)c2)cc1 (centres unmarked) [Compound 958, 3-{[Bis-(2-hydroxy-propyl)-amino]-methyl}-N-[2-(4-methoxy-benzylidene-hydrazinocarbonyl)-4-piperidin-1-yl-phenyl]-benzamide] | < 1 | –
O=C(Nc1ccc(OCCN2CCCCC2)cc1C(=O)N/N=C/c1ccc(Cl)c(C(F)(F)F)c1)c1cccc(CSCCO)c1 [Compound 1044, N-[2-(4-Chloro-3-trifluoromethyl-benzylidene-hydrazinocarbonyl)-4-(2-piperidin-1-yl-ethoxy)-phenyl]-3-(2-hydroxy-ethylsulfanylmethyl)-benzamide] | 2.13 | –
O=C(Nc1ccc(Br)cc1C(=O)N/N=C/c1ccc(F)cc1)c1ccc(CN2CCC(N3CCCCC3)CC2)cc1 [Compound 311, 4-[1,4′]Bipiperidinyl-1′-ylmethyl-N-[4-bromo-2-(4-fluoro-benzylidene-hydrazinocarbonyl)-phenyl]-benzamide] | 7.78 | –
COc1ccc(/C=N/NC(=O)c2c(NC(=O)c3cccc(CN4CCC(CO)CC4)c3)sc3c2CCC3)cc1 [Compound 821, 3-(4-Hydroxymethyl-piperidin-1-ylmethyl)-N-[3-(4-methoxy-benzylidene-hydrazinocarbonyl)-5,6-dihydro-4H-cyclopenta[b]thiophen-2-yl]-benzamide] | 17.9 | –
O=C(Nc1ccc(N2CCCCC2)cc1C(=O)N/N=C/c1ccc(Cl)c(C(F)(F)F)c1)c1cccc(CN2CCC(O)CC2)c1 [Compound 874, N-[2-(4-Chloro-3-trifluoromethyl-benzylidene-hydrazinocarbonyl)-4-piperidin-1-yl-phenyl]-3-(4-hydroxy-piperidin-1-ylmethyl)-benzamide] | < 0.3 | –
CCN(CC)CCN(C)Cc1cccc(C(=O)Nc2sc3c(c2C(=O)N/N=C/c2cccc(F)c2)CCCC3)c1 [Compound 612, 3-{[(2-Diethylamino-ethyl)-methyl-amino]-methyl}-N-[3-(3-fluoro-benzylidene-hydrazinocarbonyl)-4,5,6,7-tetrahydro-benzo-[b]thiophen-2-yl]-benzamide] | 2.34 | –
COc1ccc(C(=O)Nc2scc(C)c2C(=O)N/N=C/c2cccc(C)c2)cc1OC [Compound 518, 3,4-Dimethoxy-N-[4-methyl-3-(3-methyl-benzylidene-hydrazinocarbonyl)-thiophen-2-yl]-benzamide] | 1.52 | –

Results, then the compound that gave them:

IC50 [µM] | inhibition at 300 µM [%] | SMILES
29.6 | – | CN(CCO)Cc1ccc(C(=O)Nc2ccc(Cl)cc2C(=O)N/N=C/c2ccc(O)cc2)cc1 [Compound 421, N-[4-Chloro-2-(4-hydroxy-benzylidene-hydrazinocarbonyl)-phenyl]-4-{[(2-hydroxy-ethyl)-methyl-amino]-methyl}-benzamide]
4.47 | – | Cc1ccc(/C=N/NC(=O)c2ccccc2NC(=O)c2ccncc2)cc1C [Compound 138, N-[2-(3,4-Dimethyl-benzylidene-hydrazinocarbonyl)-phenyl]-isonicotinamide]
1.6 | – | O=C(Nc1ccc(Br)cc1C(=O)N/N=C/c1cccc(F)c1)c1ccc(CSCCCO)cc1 [Compound 277, N-[4-Bromo-2-(3-fluoro-benzylidene-hydrazinocarbonyl)-phenyl]-4-(3-hydroxy-propylsulfanylmethyl)-benzamide]
69.1 | – | Cn1cccc1/C=N/NC(=O)c1cc(Br)ccc1NC(=O)c1cccnc1 [Compound 211, N-[4-Bromo-2-(1-methyl-1H-pyrrol-2-ylmethylene-hydrazinocarbonyl)-phenyl]-nicotinamide]
– | 47.9 | O=C(Nc1ccccc1C(=O)N/N=C/C=C/c1ccccc1)c1ccccc1 [Compound 235, N-[2-(3-Phenyl-allylidene-hydrazinocarbonyl)-phenyl]-benzamide]
– | 63.9 | CN(CCCNCc1ccc(C(=O)Nc2ccc(Br)cc2C(=O)N/N=C/c2ccc(F)cc2)cc1)c1ccccc1 [Compound 759, N-[4-Bromo-2-(4-fluoro-benzylidene-hydrazinocarbonyl)-phenyl]-4-{[3-(methyl-phenyl-amino)-propylamino]-methyl}-benzamide]
3.77 | – | COc1ccc(C(=O)Nc2ccc(Br)cc2C(=O)N/N=C/c2ccc(O)cc2)cc1OC [Compound 64, N-[4-Bromo-2-(4-hydroxy-benzylidene-hydrazinocarbonyl)-phenyl]-3,4-dimethoxy-benzamide]
– | 56.5 | COc1ccc(/C=N/NC(=O)c2cc(Br)ccc2NC(=O)c2ccc(CNC(CN3CCOCC3)c3ccccc3)cc2)cc1 (centres unmarked) [Compound 748, N-[4-Bromo-2-(4-methoxy-benzylidene-hydrazinocarbonyl)-phenyl]-4-[(2-morpholin-4-yl-1-phenyl-ethylamino)-methyl]-benzamide]
11 | – | COc1cc(OC)cc(C(=O)Nc2ccccc2C(=O)N/N=C/c2ccc(C)c(C)c2)c1 [Compound 93, N-[2-(3,4-Dimethyl-benzylidene-hydrazinocarbonyl)-phenyl]-3,5-dimethoxy-benzamide]

— US8134015B2, “Compound inhibiting in vivo phosphorous transport and medicine containing the same” (Kyowa Hakko Kirin Co., Ltd., priority 2003, dated 2012)
